The source of these data is patent EP3046573B1, “AMYLIN ANALOGUES” (Zealand Pharma A/S, priority 2013, dated 2015).

SMILES strings stand for the structures. Like-named read-outs stand apart in the source and are kept apart here. Numbered stars: 1 amine (or outer) side, 2 acyl side, 3 side chain; on linkers, the order of the positions; unused ones are H or OH. Bridge positions count the residues as written; N and C are the ends. Square brackets hold non-standard residues; d marks the D form. Peptide text beside a SMILES is read from it. * marks the point of attachment. C20 diacid = O=C(O)CCCCCCCCCCCCCCCCCCC(=O)*; γGlu = O=C(O)[C@H](CCC(=O)[*:2])N[*:1]; NMeI = CC[C@H](C)[C@H](NC)C(=O)O; hArg = N=C(N)NCCCC[C@H](N)C(=O)O; Sar = CNCC(=O)O

The nature of series [1]: Solubility assessment (turbidity absorbance at 325 nm). The format is physicochemical. To be noted: stock 2 mg/ml diluted 1:1, ambient temperature (typically 25°C), n=1; for Solubility, Acetate buffer pH 4: 100 mM acetate buffer pH 4.0; for Solubility, Acetate buffer pH 5: 100 mM acetate buffer pH 5.0; for Solubility, Histidine buffer pH 6: 100 mM histidine buffer pH 6.0; for Solubility, Histidine buffer pH 7: 100 mM histidine buffer pH 7.0; for Solubility, Phosphate buffer pH 6: 100 mM phosphate buffer pH 6.0; for Solubility, Phosphate buffer pH 7: 100 mM phosphate buffer pH 7.0; for Solubility, Phosphate buffer pH 7.5: 100 mM phosphate buffer pH7.5. As for the experimental part: A stock solution of the test peptide (2 mg/ml; determined from the weighed amount of peptide) in demineralized water adjusted to pH 2.5 with HCI was prepared, and aliquots were diluted 1:1 in 100 mM acetate buffer (pH 4.0 and pH 5.0), 100 mM histidine buffer (pH 6.0 and pH 7.0) and 100 mM phosphate buffer (pH 6.0, pH 7.0 and pH7.5), respectively, and loaded in a standard flat-bottom, non-sterile 96-well UV Microplate. The absorbance of samples (single samples, n=1) at 280 and 325 nm was measured in an absorbance-based plate reader, which was preheated to ambient temperature (typically 25°C). The turbidity absorbance criterion for a peptide solubility of ≥ 1 mg/ml was an absorbance at 325 nm of ≤ 0.02 absorbance units (which is 5 to 6 times the standard deviation of 8 buffer samples in a plate). Solubility data for peptides of the invention, pramlintide, and for a comparison pramlintide derivative denoted NN96 (see Example 5 below for details) are shown in Table 1, below. Table 1. Solubility data for compounds of the invention.

Series [2] concerns the target T1, human calcitonin receptor (hCTR2) (Homo sapiens, UniProt P30988).
T1 construct: expressed in transfected cells
T1 sequence (P30988 25-474): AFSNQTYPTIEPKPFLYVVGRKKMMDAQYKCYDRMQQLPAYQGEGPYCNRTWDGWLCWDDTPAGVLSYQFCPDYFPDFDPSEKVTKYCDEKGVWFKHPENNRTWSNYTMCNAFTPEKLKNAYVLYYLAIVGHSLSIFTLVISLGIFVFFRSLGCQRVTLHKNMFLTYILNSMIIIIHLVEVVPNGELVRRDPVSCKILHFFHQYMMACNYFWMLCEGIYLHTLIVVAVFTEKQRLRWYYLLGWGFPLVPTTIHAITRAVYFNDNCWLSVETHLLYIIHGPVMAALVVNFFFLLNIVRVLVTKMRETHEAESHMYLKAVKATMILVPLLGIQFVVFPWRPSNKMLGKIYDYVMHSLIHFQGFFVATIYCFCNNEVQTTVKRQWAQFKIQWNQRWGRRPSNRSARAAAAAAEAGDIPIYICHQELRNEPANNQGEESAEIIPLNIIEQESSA
The experiment in a line: hCTR2 assay: induction of cAMP (AlphaScreen cAMP Assay kit) in COS7 cells expressing hCTR2. The format is cell-based. In outline: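 cAMP induction was measured by AlphaScreen in COS7 cells stably expressing hCTR2 without RAMPs, after 15 min at 37° C with increasing peptide concentrations, 100 µM IBMX and 0.1% casein (Tyrode, pH 7.4). A 4-parameter logistic fit gave EC50 and % efficacy versus pramlintide.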

Regarding `CC[C@H](C)[C@@H](C(=O)N[C@@H](CC(C)C)C(=O)N[C@@H](CO)C(=O)N[C@@H](CO)C(=O)N[C@H](C(=O)N[C@@H](CC(N)=O)C(=O)N[C@H](C(=O)NCC(=O)N[C@@H](CO)C(=O)N[C@@H](Cc1c[nH]cn1)C(=O)N[C@H](C(=O)N[C@@H](Cc1ccc(O)cc1)C(N)=O)[C@@H](C)O)C(C)C)[C@@H](C)O)N(C)C(=O)CN(C)C(=O)[C@H](Cc1ccccc1)NC(=O)[C@H](CC(N)=O)NC(=O)[C@H](CC(N)=O)NC(=O)[C@H](CO)NC(=O)[C@H](CO)NC(=O)[C@H](Cc1c[nH]cn1)NC(=O)[C@H](Cc1c[nH]cn1)NC(=O)[C@H](CC(C)C)NC(=O)[C@H](Cc1ccccc1)NC(=O)[C@H](CCC(=O)O)NC(=O)[C@H](C)NC(=O)[C@H](CC(C)C)NC(=O)[C@H](CCCNC(=N)N)NC(=O)[C@H](CCC(N)=O)NC(=O)[C@@H](NC(=O)[C@H](C)NC(=O)[C@@H]1CSSC[C@H](NC(=O)[C@H](CCCCN)NC(=O)CC[C@H](NC(=O)CCCCCCCCCCCCCCCCCCC(=O)O)C(=O)O)C(=O)N[C@@H](CC(N)=O)C(=O)N[C@@H]([C@@H](C)O)C(=O)N[C@@H](C)C(=O)N[C@@H]([C@@H](C)O)C(=O)N1)[C@@H](C)O` [Compound 4, [19CD]-isoGlu-KC()NTATC()ATQRLAEFLHHSSNNF-Gly(Me)-Ile(Me)-LSSTNVGSHTY-NH2] ({C20 diacid-γGlu}-KCNTATCATQRLAEFLHHSSNNF[Sar][NMeI]LSSTNVGSHTY-NH2; disulfide 2-7), in series [1], the “Solubility, Acetate buffer pH 4” value is “II (II indicates solubility ≤ 1 mg/ml)”; the “Solubility, Acetate buffer pH 5” value was “SS (SS indicates solubility ≥ 1mg/ml)”; the “Solubility, Histidine buffer pH 6” value is on record as “II (II indicates solubility ≤ 1 mg/ml)”; the “Solubility, Histidine buffer pH 7” value was “II (II indicates solubility ≤ 1 mg/ml)”. In series [1], the “Solubility, Phosphate buffer pH 6” value was “II (II indicates solubility ≤ 1 mg/ml)”; the “Solubility, Phosphate buffer pH 7” value is “II (II indicates solubility ≤ 1 mg/ml)”; the “Solubility, Phosphate buffer pH 7.5” value was “II (II indicates solubility ≤ 1 mg/ml)”. Besides, the EC50 in series [2] (cAMP induction in COS7 cells expressing hCTR2, average of a minimum of 3 determinations, read-out: hCTR2 EC50) worked out at 1.3 nM.

For `CC[C@H](C)[C@@H](C(=O)N[C@@H](CC(C)C)C(=O)N[C@@H](CO)C(=O)N[C@@H](CO)C(=O)N[C@H](C(=O)N[C@@H](CC(N)=O)C(=O)N[C@H](C(=O)NCC(=O)N[C@@H](CO)C(=O)N[C@@H](CC(N)=O)C(=O)N[C@H](C(=O)N1CCC[C@H]1C(N)=O)[C@@H](C)O)C(C)C)[C@@H](C)O)N(C)C(=O)[C@H](C)NC(=O)CN(C)C(=O)[C@H](Cc1ccccc1)NC(=O)[C@H](CC(N)=O)NC(=O)[C@H](CC(N)=O)NC(=O)[C@H](CO)NC(=O)[C@H](CO)NC(=O)[C@H](Cc1c[nH]cn1)NC(=O)[C@H](Cc1c[nH]cn1)NC(=O)[C@H](CC(C)C)NC(=O)[C@H](Cc1ccccc1)NC(=O)[C@H](CCC(=O)O)NC(=O)[C@H](C)NC(=O)[C@H](CC(C)C)NC(=O)[C@H](CCCNC(=N)N)NC(=O)[C@H](CCC(N)=O)NC(=O)[C@@H](NC(=O)[C@H](C)NC(=O)[C@@H]1CSSC[C@H](NC(=O)[C@H](C)NC(=O)CC[C@H](NC(=O)CCCCCCCCCCCCCCCCCCC(=O)O)C(=O)O)C(=O)N[C@@H](CC(N)=O)C(=O)N[C@@H]([C@@H](C)O)C(=O)N[C@@H](C)C(=O)N[C@@H]([C@@H](C)O)C(=O)N1)[C@@H](C)O` [Compound 5, [19CD]-isoGlu-AC()NTATC()ATQRLAEFLHHSSNNF-Gly(Me)-A-Ile(Me)-LSSTNVGSNTP-NH2] ({C20 diacid-γGlu}-ACNTATCATQRLAEFLHHSSNNF[Sar]A[NMeI]LSSTNVGSNTP-NH2; disulfide 2-7), in series [1], the “Solubility, Acetate buffer pH 4” value is “SS (SS indicates solubility ≥ 1mg/ml)”; the “Solubility, Acetate buffer pH 5” value is “SS (SS indicates solubility ≥ 1mg/ml)”; the “Solubility, Histidine buffer pH 6” value is on record as “SS (SS indicates solubility ≥ 1mg/ml)”; the “Solubility, Histidine buffer pH 7” value is listed as “SS (SS indicates solubility ≥ 1mg/ml)”. Further, in series [1], the “Solubility, Phosphate buffer pH 6” value is “SS (SS indicates solubility ≥ 1mg/ml)”; the “Solubility, Phosphate buffer pH 7” value is “SS (SS indicates solubility ≥ 1mg/ml)”; the “Solubility, Phosphate buffer pH 7.5” value is “SS (SS indicates solubility ≥ 1mg/ml)”. Also, in series [2], the EC50 turned out to be 0.75 nM.

In the case of `CC[C@H](C)[C@@H](C(=O)N[C@@H](CC(C)C)C(=O)N[C@@H](CO)C(=O)N[C@@H](CO)C(=O)N[C@H](C(=O)N[C@@H](CC(N)=O)C(=O)N[C@H](C(=O)NCC(=O)N[C@@H](CO)C(=O)N[C@@H](CC(N)=O)C(=O)N[C@H](C(=O)N1CCC[C@H]1C(N)=O)[C@@H](C)O)C(C)C)[C@@H](C)O)N(C)C(=O)CN(C)C(=O)[C@H](Cc1ccccc1)NC(=O)[C@H](CC(N)=O)NC(=O)[C@@H](CC(N)=O)NC(=O)[C@H](CO)NC(=O)[C@H](CO)NC(=O)[C@H](Cc1c[nH]cn1)NC(=O)[C@H](Cc1c[nH]cn1)NC(=O)[C@H](CC(C)C)NC(=O)[C@H](Cc1ccccc1)NC(=O)[C@H](CCC(=O)O)NC(=O)[C@H](C)NC(=O)[C@H](CC(C)C)NC(=O)[C@H](CCCNC(=N)N)NC(=O)[C@H](CCC(N)=O)NC(=O)[C@@H](NC(=O)[C@H](C)NC(=O)[C@@H]1CSSC[C@H](NC(=O)[C@H](CCCNC(=N)N)NC(=O)CC[C@H](NC(=O)CCCCCCCCCCCCCCCCCCC(=O)O)C(=O)O)C(=O)N[C@@H](CC(N)=O)C(=O)N[C@@H]([C@@H](C)O)C(=O)N[C@@H](C)C(=O)N[C@@H]([C@@H](C)O)C(=O)N1)[C@@H](C)O` [Compound 35, [19CD]-isoGlu-RC()NTATC()ATQRLAEFLHHSS-DAsn-NF-Gly(Me)-Ile(Me)-LSSTNVGSNTP-NH2] ({C20 diacid-γGlu}-RCNTATCATQRLAEFLHHSS[dN]NF[Sar][NMeI]LSSTNVGSNTP-NH2; disulfide 2-7), in series [2], the EC50 is 0.16 nM.

As for `CC[C@H](C)[C@@H](C(=O)N[C@@H](CC(C)C)C(=O)N[C@@H](CO)C(=O)N[C@@H](CO)C(=O)N[C@H](C(=O)N[C@@H](CC(N)=O)C(=O)N[C@H](C(=O)NCC(=O)N[C@@H](CO)C(=O)N[C@@H](CC(N)=O)C(=O)N[C@H](C(=O)N1CCC[C@H]1C(N)=O)[C@@H](C)O)C(C)C)[C@@H](C)O)N(C)C(=O)[C@H](C)NC(=O)CN(C)C(=O)[C@H](Cc1ccccc1)NC(=O)[C@H](CC(N)=O)NC(=O)[C@H](CC(N)=O)NC(=O)[C@H](CO)NC(=O)[C@H](CO)NC(=O)[C@H](Cc1c[nH]cn1)NC(=O)[C@H](Cc1c[nH]cn1)NC(=O)[C@H](CC(C)C)NC(=O)[C@H](Cc1ccccc1)NC(=O)[C@H](CCC(=O)O)NC(=O)[C@H](C)NC(=O)[C@H](CC(C)C)NC(=O)[C@H](CCCNC(=N)N)NC(=O)[C@H](CCC(N)=O)NC(=O)[C@@H](NC(=O)[C@H](C)NC(=O)[C@@H]1CSSC[C@H](NC(=O)[C@H](CCCCNC(=N)N)NC(=O)CC[C@H](NC(=O)CCCCCCCCCCCCCCCCCCC(=O)O)C(=O)O)C(=O)N[C@@H](CC(N)=O)C(=O)N[C@@H]([C@@H](C)O)C(=O)N[C@@H](C)C(=O)N[C@@H]([C@@H](C)O)C(=O)N1)[C@@H](C)O` [Compound 43, [19CD]-isoGlu-HarC()NTATC()ATQRLAEFLHHSSNNF-Gly(Me)-A-Ile(Me)-LSSTNVGSNTP-NH2] ({C20 diacid-γGlu}-[hArg]CNTATCATQRLAEFLHHSSNNF[Sar]A[NMeI]LSSTNVGSNTP-NH2; disulfide 2-7), the EC50 in series [2] was 0.1 nM.

The EC50 is the midpoint of the concentration-response curve.
